US5304548A, “Bivalent ligands effective for blocking ACAT enzyme for lowering plasma triglycerides and for elevating HDL cholesterol” (The Upjohn Company, priority 1992, dated 1994)
In brackets after ≈: the same amount, converted by molar mass. Entries after “also recorded” stand apart in the source; their conditions may differ.

Experiments:
[1] = system: acyl-CoA: cholesterol O-acyltransferase enzyme (ACAT); assay: Inhibition of cellular ACAT (esterification of 3H-cholesterol taken up by cells); details: for IC50: ACAT inhibition; for ACAT inhibition, result in words: comparison bivalent vs. monomeric / by dose
[2] = Antiatherosclerotic activity, Netherland dwarf rabbits on cholesterol-containing atherogenic diet, twelve weeks; assay type: in vivo, Netherland dwarf rabbit; details: 50 mg/kg/day
Protocol: In another experiment, ACAT inhibitor compound Ia (Table 2) was administered for twelve weeks at 50 mg/kg/day to Netherland dwarf rabbits that were feed a cholesterol-containing atherogenic diet. During the twelve week period serum cholesterol, triglycerides, and carnitine were monitored. At the end of the study the aortas from the drug treated group and a non-drug treated group were examined for atherosclerosis development.

[3] = Hypertriglyceridemia model, female Zucker rats (fafa), compound in chow with cross-over; assay type: in vivo, Zucker rat
Protocol: Female Zucker rats (fafa, 378±3) were maintained on a pelleted chow diet (Purina Chow #5001) or the chow diet which contained Compound Ia (Ia) at a level calculated to deliver 50 mg/kg/day. The Ia containing pellets were prepared from #5001 meal into which the drug had been pre-mixed and subsequently pelletized. […] The plasma was obtained from heparinized blood taken by cardiac puncture and the lipids were measured using an Ektachem DT60 analyzer (Eastman Kodak).

[4] = Plasma triglycerides in rats or rabbits whose triglycerides are within normal limits; assay type: in vivo; details: rats or rabbits with triglycerides within normal limits
[5] = Antiatherosclerotic activity, SEA quail on high cholesterol diet, oral compound, arteries analysed after eight weeks; assay type: in vivo, SEA Japanese quail; details: statistically significant
Protocol: For example, five to six week old, male, SEA quails were placed on a high cholesterol diet with one group orally receiving the subject ACAT inhibitor compound Ia (Table 2). After eight weeks the arteries were removed, cleaned and homogenized. Total cholesterol, free cholesterol and triglycerides were measured.

[6] = Hypercholesterolemic model, obese female Zucker rats (fa/fa), dose response of plasma lipids after 1 week; assay type: in vivo, Zucker rat; details: genetically obese Zucker rats
Protocol: Obese female Zucker rats (fa/fa) weighing 500-600 g were used in the study. These animals are endogenously hypertriglyceridemic and hypercholesterolemic as was described above. Basal plasma triglycerides, cholesterol, and HDL-C levels were determined in individual rats (Ektachem DT 60 Analyzer) which were then randomly assigned to four Compound Ia (Ia) treatment groups (5 mg/kg, n=4; 10 mg/kg, n=4; 20 mg/kg, n=4; 30 mg/kg, n=3). The animals were all individually housed and received Purina Chow pellets (#5002) containing IA at levels calculated to provide the daily doses of Ia described above. After 1 week, all rats were bled by cardiac puncture for determination of plasma triglycerides, cholesterol, and HDL-C. An additional group of rats (n=3) receiving chow alone was run in parallel with the treatment groups as an additional control for the experiment. Each animal acted as its own control since plasma lipid parameters were measured in each animal immediately prior to dosing. The data for triglycerides, cholesterol, and HDL-C were adjusted for this pre-dosing value using a percent change calculation: ((Post-Pre)/Pre)100 . For all 3 measurements, a simple linear model was fit to the percent change value vs log 10 (dose). The logarithmic transformation was used to linearalize the relationship.

Structure (SMILES)	% ACAT Inhibition ([1]; 5 μg/ml) [%]	% ACAT Inhibition ([1]; 10 μg/ml) [%]	% ACAT Inhibition ([1]; 15 μg/ml) [%]	also measured
COc1c2c(c(OC)c3c(=O)cc(CN4CCC(CCC5CCN(Cc6cc(=O)c7c(OC)c8c(c(OC)c7o6)OCC8)CC5)CC4)oc13)CCO2 [Compound V, 7,7'-(1,2-Ethanediylbis(4,1-piperidinediylmethylene))bis-2,3-dihydro-4,9-dimethoxy-5H-furo(3.2-g)(1)benzopyran-5-one]	63	73	74	IC50 [1]: 3.0 µg/mL (≈ 4.19 µM)
COc1c2occc2c(OC)c2c(=O)cc(CN3CCN(CC(O)CN4CCN(Cc5cc(=O)c6c(OC)c7ccoc7c(OC)c6o5)CC4)CC3)oc12 [Compound Ic]	7	13	15	–
COc1c2occc2c(OC)c2c(=O)nc(N3CCC(CCCC4CCN(c5nc(=O)c6c(OC)c7ccoc7c(OC)c6o5)CC4)CC3)oc12 [Compound II]	60	89	97	IC50 [1]: 1.8 µg/mL (≈ 2.57 µM)
COc1c2occc2c(OC)c2c(=O)cc(CN3CCC(CCC4CCN(Cc5cc(=O)c6c(OC)c7ccoc7c(OC)c6o5)CC4)CC3)oc12 [Compound Ia]	87	84	75	IC50 [1]: 0.8 µg/mL (≈ 1.12 µM); mean serum cholesterol level ([2]; control exceeded 2200 mg/dl): 271 mg/dL; atheromatous lesion development ([2]; extensive in controls): negligible atheromatous lesion development; development of hypercholesterolemia ([2]; vs. control): less extensive development of hypercholesterolemia; mean plasma cholesterol ([3]; Ia administration, 50 mg/kg/day, from 126±18): 174 ± 8 mg/dL; plasma cholesterol, cross-over ([3]; controls crossed over to Ia at day 27, from 118±24, three of four animals increased): 164 ± 22 mg/dL; plasma triglycerides, cross-over ([3]; controls crossed over to Ia, 5 day cross-over period, from 2872±742): 656 ± 242 mg/dL; plasma cholesterol after withdrawal ([3]; drug withdrawn day 16): restored essentially to pretreatment levels; plasma triglycerides after withdrawal ([3]; drug withdrawn on day 16, within 1 week): essentially returned to pretreatment levels within 1 week; plasma triglycerides, lowest level reached ([3]; from levels as high as 3000 mg/dl): less than 300 mg/dl; plasma triglycerides ([3]; within 8 days of addition to diet, 50 mg/kg/day, from group mean 2431±446): 260 ± 52 mg/dL; effect on plasma triglyceride levels [4]: very little effect on plasma triglyceride levels; reduction in the accumulation of esterified cholesterol in the arteries [5]: thirty; plasma HDL cholesterol, result in words [6]: dose dependent elevation of plasma HDL cholesterol; also recorded: significant linear positive relationship between the % change HDL-C and log 10 (dose); also recorded: ability to elevate HDL-cholesterol; plasma total cholesterol, result in words [6]: without significant changes in plasma total cholesterol; also recorded: hypotriglyceridemic effect can be dissociated from a tendency to elevate plasma cholesterol; plasma triglycerides, result in words [6]: dose-dependent reduction in plasma triglycerides; also recorded: significant negative relationship between % change in plasma triglycerides and log 10 (dose); also recorded: confirmed the triglyceride lowering activity
COc1c2c(c(OC)c3occc13)OC(=CN1CCC(CCCC3CCN(C=C4Oc5c(c(OC)c6ccoc6c5OC)C4=O)CC3)CC1)C2=O [Compound VII]	–	–	–	ACAT inhibition, result in words [1]: active at the high dose tested (15 μg/ml)
COc1c2c(c(OC)c3occc13)OC(=CNC1CCCCC1)C2=O [reference compound]	47	55	65	–
COc1c2occc2c(OC)c2c(=O)cc(CN3CCN(CCN4CCN(Cc5cc(=O)c6c(OC)c7ccoc7c(OC)c6o5)CC4)CC3)oc12 [Compound Ib]	5	6	2	–
COc1c2occc2c(OC)c2c(=O)cc(CN3CCC(C4CCN(Cc5cc(=O)c6c(OC)c7ccoc7c(OC)c6o5)CC4)CC3)oc12 [Compound Id]	0	0	0	–
COc1c2occc2c(OC)c2c(=O)cc(CN3CCC(C)CC3)oc12 [IV, reference compound]	10	27	39	ACAT inhibition, result in words [1]: reduced percent ACAT inhibition
COc1c2c(c(OC)c3occc13)OC(=CNCCCN1CCN(CCCNC=C3Oc4c(c(OC)c5ccoc5c4OC)C3=O)CC1)C2=O [Compound VIII]	32	41	49	–
COc1c2c(c(OC)c3occc13)OC(=CNCCCCCCCCNC=C1Oc3c(c(OC)c4ccoc4c3OC)C1=O)C2=O [Compound IX]	63	52	51	ACAT inhibition, result in words [1]: excellent inhibition over its monomeric counterparts; also recorded: surprisingly good inhibitory activity even at the 5 μg/ml dose
COc1c2c(c(OC)c3occc13)OC(=CN1CCC(CCCC3CCN(C=C4Oc5c(c(OC)c6ccoc6c5OC)C4=O)CC3)CC1)C2=O [Compound III]	18	29	52	–
COc1c2occc2c(OC)c2c(=O)cc(CN3CCC(CCCC4CCN(Cc5cc(=O)c6c(OC)c7ccoc7c(OC)c6o5)CC4)CC3)oc12 [Compound I]	68	84	91	IC50 [1]: 4.2 µg/mL (≈ 5.78 µM); ACAT inhibition, result in words [1]: enhanced potency
COc1c2c(c(OC)c3occc13)OC(=CNCc1ccccc1)C2=O [reference compound]	50	66	78	–
COc1c2oc([Si](C)(C)C)cc2c(OC)c2c(=O)cc(CN3CCC(CCC4CCN(Cc5cc(=O)c6c(OC)c7cc([Si](C)(C)C)oc7c(OC)c6o5)CC4)CC3)oc12 [Compound VI]	18	29	52	–
